# Experimental data taken from patent EP0550016A1, “Novel quinolone carboxylic acid derivatives and processes for preparing same” (KOREA RESEARCH INSTITUTE OF CHEMICAL TECHNOLOGY, priority 1991, dated 1993).
# Like-named read-outs stand apart in the source and are kept apart here.
# Experiments:
# Escherichia coli 1507 E = assay: In vitro anti-bacterial activity test (MIC, two-fold dilution method) against the standard strains; type: cell-based; conditions: Table 1 strain 11: Escherichia coli 1507 E
# [1] = tested on: Staphylococcus aureus 706 E; assay: In vitro anti-bacterial activity test (MIC, two-fold dilution method), Table 2 strains; type: cell-based; conditions: Table 2 strain 14: Staphylococcus aureus 706 E; read-out: MIC
# [2] = tested on: Staphylococcus aureus 690 E; assay: as above; type: cell-based; conditions: Table 2 strain 5: Staphylococcus aureus 690 E; read-out: MIC
# [3] = tested on: Staphylococcus aureus 694 E; assay: as above; type: cell-based; conditions: Table 2 strain 8: Staphylococcus aureus 694 E; read-out: MIC
# [4] = tested on: Klebsiella aerogenes 1082 E; assay: In vitro anti-bacterial activity test (MIC, two-fold dilution method) against the standard strains; type: cell-based; conditions: Table 1 strain 17: Klebsiella aerogenes 1082 E
# Escherichia coli DC 2 = assay: as above; type: cell-based; conditions: DC2
# [5] = tested on: Staphylococcus aureus 88 E; assay: In vitro anti-bacterial activity test (MIC, two-fold dilution method), Table 2 strains; type: cell-based; conditions: Table 2 strain 1: Staphylococcus aureus 88 E
# [6] = tested on: Staphylococcus aureus 285; assay: In vitro anti-bacterial activity test (MIC, two-fold dilution method) against the standard strains; type: cell-based; conditions: Table 1 strain 5: Staphylococcus aureus 285; read-out: MIC
# [7] = tested on: Enterobacter cloacae P 99; assay: as above; type: cell-based; conditions: P99; Table 1 strain 19: Enterobacter cloacae P 99
# [8] = tested on: Pseudomonas aeruginosa 1592 E; assay: as above; type: cell-based; conditions: Table 1 strain 13: Pseudomonas aeruginosa 1592 E
# [9] = tested on: Staphylococcus aureus 121 E; assay: In vitro anti-bacterial activity test (MIC, two-fold dilution method), Table 2 strains; type: cell-based; conditions: Table 2 strain 2: Staphylococcus aureus 121 E; read-out: MIC
# [10] = tested on: Enterobacter cloacae 1321 E; assay: In vitro anti-bacterial activity test (MIC, two-fold dilution method) against the standard strains; type: cell-based; conditions: Table 1 strain 20: Enterobacter cloacae 1321 E
# [11] = tested on: Staphylococcus aureus 703 E; assay: In vitro anti-bacterial activity test (MIC, two-fold dilution method), Table 2 strains; type: cell-based; conditions: Table 2 strain 12: Staphylococcus aureus 703 E; read-out: MIC
# Escherichia coli DC 0 [12] = assay: In vitro anti-bacterial activity test (MIC, two-fold dilution method) against the standard strains; type: cell-based; conditions: DC0; Table 1 strain 7: Escherichia coli DC 0
# [13] = tested on: Klebsiella aerogenes 1522 E; assay: as above; type: cell-based; conditions: Table 1 strain 18: Klebsiella aerogenes 1522 E
# [14] = tested on: Staphylococcus aureus 701 E; assay: In vitro anti-bacterial activity test (MIC, two-fold dilution method), Table 2 strains; type: cell-based; conditions: Table 2 strain 11: Staphylococcus aureus 701 E; read-out: MIC
# [15] = tested on: Staphylococcus aureus 725 E; assay: as above; type: cell-based; conditions: Table 2 strain 19: Staphylococcus aureus 725 E; read-out: MIC
# [16] = tested on: Staphylococcus aureus 705 E; assay: as above; type: cell-based; conditions: Table 2 strain 13: Staphylococcus aureus 705 E; read-out: MIC
# [17] = tested on: Staphylococcus aureus 256 E; assay: as above; type: cell-based; conditions: Table 2 strain 4: Staphylococcus aureus 256 E
# [18] = tested on: Staphylococcus aureus 503; assay: In vitro anti-bacterial activity test (MIC, two-fold dilution method) against the standard strains; type: cell-based; conditions: Table 1 strain 6: Staphylococcus aureus 503; read-out: MIC
# [19] = tested on: Streptococcus faecium MD 8b; assay: as above; type: cell-based; conditions: Enterococcus faecium, MD8B; Table 1 strain 3: Streptococcus faecium MD 8b; read-out: MIC
# [20] = tested on: Pseudomonas aeruginosa 1771; assay: as above; type: cell-based; conditions: Table 1 strain 14: Pseudomonas aeruginosa 1771
# [21] = tested on: Staphylococcus aureus SG 511; assay: as above; type: cell-based; conditions: SG511; Table 1 strain 4: Staphylococcus aureus SG 511
# [22] = tested on: Staphylococcus aureus 708 E; assay: In vitro anti-bacterial activity test (MIC, two-fold dilution method), Table 2 strains; type: cell-based; conditions: Table 2 strain 16: Staphylococcus aureus 708 E
# [23] = tested on: Staphylococcus aureus 695 E; assay: as above; type: cell-based; conditions: Table 2 strain 9: Staphylococcus aureus 695 E; read-out: MIC
# [24] = tested on: Staphylococcus aureus 692 E; assay: as above; type: cell-based; conditions: Table 2 strain 6: Staphylococcus aureus 692 E
# [25] = tested on: Streptococcus pyogenes 77 A; assay: In vitro anti-bacterial activity test (MIC, two-fold dilution method) against the standard strains; type: cell-based; conditions: Table 1 strain 2: Streptococcus pyogenes 77 A; read-out: MIC
# [26] = tested on: Staphylococcus aureus 707 E; assay: In vitro anti-bacterial activity test (MIC, two-fold dilution method), Table 2 strains; type: cell-based; conditions: Table 2 strain 15: Staphylococcus aureus 707 E; read-out: MIC
# Salmonella typhimurium = assay: In vitro anti-bacterial activity test (MIC, two-fold dilution method) against the standard strains; type: cell-based; conditions: Salmonella enterica; Table 1 strain 16: Salmonella typhimurium
# [27] = tested on: Staphylococcus aureus 714 E; assay: In vitro anti-bacterial activity test (MIC, two-fold dilution method), Table 2 strains; type: cell-based; conditions: Table 2 strain 18: Staphylococcus aureus 714 E; read-out: MIC
# [28] = tested on: Staphylococcus aureus 208 E; assay: as above; type: cell-based; conditions: Table 2 strain 3: Staphylococcus aureus 208 E; read-out: MIC
# [29] = tested on: Staphylococcus aureus 697 E; assay: as above; type: cell-based; conditions: Table 2 strain 10: Staphylococcus aureus 697 E
# [30] = tested on: Staphylococcus aureus 693 E; assay: as above; type: cell-based; conditions: Table 2 strain 7: Staphylococcus aureus 693 E; read-out: MIC
# [31] = tested on: Staphylococcus aureus 711 E; assay: as above; type: cell-based; conditions: Table 2 strain 17: Staphylococcus aureus 711 E; read-out: MIC
# Escherichia coli OTEM = assay: In vitro anti-bacterial activity test (MIC, two-fold dilution method) against the standard strains; type: cell-based; conditions: Table 1 strain 10: Escherichia coli OTEM
# [32] = tested on: Pseudomonas aeruginosa 9027; assay: as above; type: cell-based; conditions: Table 1 strain 12: Pseudomonas aeruginosa 9027
# Escherichia coli DC 0 [33] = assay: as above; type: cell-based; conditions: DC0; Table 1 strain 8: Escherichia coli DC 0
# [34] = tested on: Pseudomonas aeruginosa 1771 M; assay: as above; type: cell-based; conditions: Table 1 strain 15: Pseudomonas aeruginosa 1771 M
# [35] = tested on: Streptococcus pyogenes 308 A; assay: as above; type: cell-based; conditions: Table 1 strain 1: Streptococcus pyogenes 308 A
# Acute Toxicity Test = conditions: mouse, in vivo, female ICR mice, day 14, read-out: Acute Toxicity(LD₅₀)
# Description: Test compounds were administered to female ICR mice weighing 20 to 25g and on day 14, LD₅₀ was calculated from the number of survived mice by the probit analysis.
# P. mirabilis = assay: Preventive effect against the systemic infection; type: in vivo; conditions: Proteus mirabilis, 168 h, NMRI mice, survival on day 7, read-out: ED₅₀
# Description: (§1) 10 fold of the pathogen which leads to 100% lethality were injected intraperitoneally to male and female NMRI mice weighing 18 to 20g. Immediately and after 4 hours, the dose of test compounds which was determined by two-fold serial dilution method was administered orally or subcutaneously; and on day 7, the effectiveness was evaluated in terms of ED₅₀ calculated from the number of survived mice by the probit analysis.
# S. aureus 17740 = assay: Preventive effect against the systemic infection; type: in vivo; conditions: Staphylococcus aureus, 168 h, NMRI mice, survival on day 7, read-out: ED₅₀
# Description: as §1
# [36] = Table 1 strain 9: Escherichia coli DC 2, read-out: MIC
SMILES,MIC (Escherichia coli 1507 E),MIC [4],MIC (Escherichia coli DC 2; [36]),MIC [6],MIC [7],MIC [8],MIC [10],MIC (Escherichia coli DC 0 [12]),MIC [13],MIC [18],MIC [19],MIC [20],MIC [21],MIC [25],MIC (Salmonella typhimurium),MIC (Escherichia coli OTEM),MIC [32],MIC (Escherichia coli DC 0 [33]),MIC [34],MIC [35],further results
"Nc1c(F)c(N2CCC3(CC3N)C2)c(F)c2c1c(=O)c(C(=O)O)cn2C1CC1 (stereo not drawn) [Example 7, 7-(1-amino-5-azaspiro[2,4]heptane-5-yl)-1-cyclopropyl-5-amino-6,8-difluoro-1,4-dihydro-4-oxo-quinoline-3-carboxylic acid]",0.098 µg/mL,0.007 µg/mL,0.098 µg/mL,0.025 µg/mL,0.025 µg/mL,1.56 µg/mL,0.013 µg/mL,0.007 µg/mL,0.098 µg/mL,0.025 µg/mL,0.391 µg/mL,0.781 µg/mL,0.025 µg/mL,0.195 µg/mL,0.025 µg/mL,0.025 µg/mL,1.56 µg/mL,0.391 µg/mL,0.391 µg/mL,0.391 µg/mL,MIC [1]: 0.025 µg/mL; MIC [2]: 0.013 µg/mL; MIC [3]: 0.025 µg/mL; MIC [5]: 0.098 µg/mL; MIC [9]: 0.025 µg/mL; MIC [11]: 0.025 µg/mL; MIC [14]: 0.025 µg/mL; MIC [15]: 0.025 µg/mL; MIC [16]: 0.025 µg/mL; MIC [17]: 0.025 µg/mL; MIC [22]: 0.007 µg/mL; MIC [23]: 0.013 µg/mL; MIC [24]: 0.013 µg/mL; MIC [26]: 0.025 µg/mL; MIC [27]: 0.013 µg/mL; MIC [28]: 0.025 µg/mL; MIC [29]: 0.013 µg/mL; MIC [30]: 0.013 µg/mL; MIC [31]: 0.007 µg/mL
C[C@H]1COc2c(N3CCC4(CC4N)C3)c(F)cc3c(=O)c(C(=O)O)cn1c23 (stereo partly drawn) [Example 13],0.098 µg/mL,0.004 µg/mL,0.098 µg/mL,0.098 µg/mL,0.049 µg/mL,1.56 µg/mL,0.049 µg/mL,0.025 µg/mL,0.098 µg/mL,0.049 µg/mL,0.195 µg/mL,1.56 µg/mL,0.098 µg/mL,0.195 µg/mL,0.049 µg/mL,0.049 µg/mL,1.56 µg/mL,0.391 µg/mL,0.391 µg/mL,0.391 µg/mL,"LD50 at 336 h (Acute Toxicity Test; ip, Intraperitoneal Injection): 620 mg/kg; LD50 at 336 h (Acute Toxicity Test; Oral Administration): 4000 mg/kg"
"NC1CC12CCN(c1c(F)cc3c(=O)c(C(=O)O)cn(C4CC4)c3c1F)C2 (stereo not drawn) [Example 1, 7-(1-amino-5-azaspiro[2,4]heptane-5-yl)-1-cyclopropyl-6,8-difluoro-1,4-dihydro-4-oxoquinoline-3-carboxylic acid]",0.013 µg/mL,0.004 µg/mL,0.049 µg/mL,0.025 µg/mL,0.013 µg/mL,0.391 µg/mL,0.004 µg/mL,0.004 µg/mL,0.013 µg/mL,0.025 µg/mL,0.195 µg/mL,0.391 µg/mL,0.025 µg/mL,0.098 µg/mL,0.013 µg/mL,0.013 µg/mL,0.781 µg/mL,0.195 µg/mL,0.195 µg/mL,0.195 µg/mL,"LD50 (Acute Toxicity Test; ip, Intraperitoneal Injection): 605 mg/kg; LD50 (Acute Toxicity Test; Oral Administration): 3800 mg/kg; ED50 (P. mirabilis; Oral Administration): 7.13 mg/kg; ED50 (P. mirabilis; sc, Subcutaneous Injection): 1.36 mg/kg; ED50 (S. aureus 17740; Oral Administration): 128 mg/kg; ED50 (S. aureus 17740; sc, Subcutaneous Injection): 16.8 mg/kg"
"CC(O)C(=O)O.NC1CC12CCN(c1c(F)cc3c(=O)c(C(=O)O)cn(C4CC4)c3c1F)C2 (stereo not drawn) [Example 2, 7-(1-amino-5-azaspiro[2,4]heptane-5-yl)-1-cyclopropyl-6,8-difluoro-1,4-dihydro-4-oxoquinoline-3-carboxylic acid lactate]",0.025 µg/mL,0.013 µg/mL,,0.025 µg/mL,0.013 µg/mL,0.781 µg/mL,0.007 µg/mL,0.004 µg/mL,0.025 µg/mL,0.025 µg/mL,0.098 µg/mL,0.781 µg/mL,0.025 µg/mL,0.098 µg/mL,0.013 µg/mL,0.025 µg/mL,0.781 µg/mL,0.195 µg/mL,0.098 µg/mL,0.195 µg/mL,"MIC (Escherichia coli DC 2; Escherichia coli): 0.049 µg/mL; LD50 (Acute Toxicity Test; ip, Intraperitoneal Injection): 580 mg/kg; LD50 (Acute Toxicity Test; Oral Administration): 3800 mg/kg; ED50 (S. aureus 17740; Oral Administration): 49.7 mg/kg; ED50 (S. aureus 17740; sc, Subcutaneous Injection): 97.6 mg/kg"
